Test results: patent publication US11976083B2, “Inhibitors of peptidylarginine deiminases” (Gilead Sciences, Inc., priority 2020, dated 2024)

These compounds were tested against T1, human PAD4 (Homo sapiens, UniProt Q9UM07) (assay: In vitro PAD4 BAEE biochemical assay). Conditions: BAEE substrate 3 mM, 5 nM PAD4, 2 mM calcium chloride; geometric mean of multiple experiments.
T1 construct: human PAD4 (NM_012387), A2-P663, was PCR amplified; His-SUMO (N, cleaved yes); made in house; host or cells: E. coli BL21(DE3)
Outline: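 Ammonia produced by BAEE deimination (3 mM substrate, 2 h, 25 °C) was read as fluorescent isoindole after o-phthalaldehyde/DTT derivatization, ex 405 nm/em 535 nm. Human PAD4 at 5 nM final, 2 mM calcium, pH 7.6 MOPS; compound preincubated 30 min. IC50s, normalized to BB-Cl-Amidine and DMSO controls, were geometric-mean averaged.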

T1 sequence (Q9UM07 2-663): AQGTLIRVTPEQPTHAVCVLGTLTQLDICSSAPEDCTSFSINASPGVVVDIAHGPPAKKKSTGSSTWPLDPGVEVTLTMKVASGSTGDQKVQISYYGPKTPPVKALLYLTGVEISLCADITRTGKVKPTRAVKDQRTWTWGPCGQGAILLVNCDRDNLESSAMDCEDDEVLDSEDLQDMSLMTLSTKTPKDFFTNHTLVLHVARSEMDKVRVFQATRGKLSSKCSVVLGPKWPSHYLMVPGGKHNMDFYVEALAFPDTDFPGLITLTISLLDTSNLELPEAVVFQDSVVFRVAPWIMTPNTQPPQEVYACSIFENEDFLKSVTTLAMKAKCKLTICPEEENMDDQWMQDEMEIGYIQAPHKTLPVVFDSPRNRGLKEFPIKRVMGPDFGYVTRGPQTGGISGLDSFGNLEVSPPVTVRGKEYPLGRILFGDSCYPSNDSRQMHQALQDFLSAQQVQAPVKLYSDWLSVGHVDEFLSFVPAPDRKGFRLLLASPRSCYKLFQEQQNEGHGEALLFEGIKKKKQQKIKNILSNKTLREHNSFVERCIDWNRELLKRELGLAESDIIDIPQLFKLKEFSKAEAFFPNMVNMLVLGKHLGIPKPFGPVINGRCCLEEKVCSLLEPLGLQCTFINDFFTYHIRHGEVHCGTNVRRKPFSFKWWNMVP

Compound	IC50 [nM]
COc1cc(C(=O)N2CC[C@@H](OC)[C@@H](N)C2)cc2nc(-c3cc4ccc5nc4n3CCCCC[C@H]3C(F)(F)[C@]3(C)C(=O)N[C@@H]5C)n(C)c12 [Example 694, (2~{R},5~{S},7~{R})-14-[5-[(3~{S},4~{R})-3-amino-4-methoxy-piperidine-1-carbonyl]-7-methoxy-1-methyl-benzimidazol-2-yl]-6,6-difluoro-2,5-dimethyl-3,13,19-triazatetracyclo[11.5.2.0^ {5,7}.0^{16,20}]icosa-1(19), 14,16(20),17-tetraen-4-one]	268
COc1cc(C(=O)N2CC[C@@H](OC)[C@@H](N)C2)cc2nc(-c3cc4ccc5nc4n3CCCCC[C@@H]3C[C@@]3(C(F)(F)F)C(=O)N[C@@H]5C)n(C)c12 [Example 634, (2~{R},5~{S},7~{R})-14-[5-[(3~{S},4~{R})-3-amino-4-methoxy-piperidine-1-carbonyl]-7-methoxy-1-methyl-benzimidazol-2-yl]-2-methyl-5-(trifluoromethyl)-3,13,19-triazatetracyclo[11.5.2.0^ {5,7}.0^{16,20}] icosa-1(19),14,16(20), 17-tetraen-4-one]	251
COc1cc(C(=O)N2CCC[C@@H](N)C2)cc2nc(-c3cc4ccc5cc4n3CCCCCC[C@@H]3CCN(C3=O)[C@@H]5C)n(C)c12 [Example 113, (2~{R},6~{R})-14-[5-[(3~{R})-3-aminopiperidine-1-carbonyl]-7-methoxy-1-methyl-benzimidazol-2-yl]-2-methyl-3,13-diazatetracyclo[11.5.2.1^{3,6}.0^{16,20}] henicosa-1(19),14,16(20),17-tetraen-21-one]	302
COc1cc(C(=O)N2[C@H]3CC[C@@H]2[C@H](N)C3)cc2nc(-c3cc4ccc5nc4n3CCCCCn3ccc(n3)C(=O)N[C@@H]5C)c(C)n12 [Example 33, (2~{R})-15-[7-[(1~{R},2~{R),4~{S})-2-amino-7-azabicyclo[2.2.1]heptane-7-carbonyl]-5-methoxy-3-methyl-imidazo[1,2-a]pyridin-2-yl]-2-methyl-3,8,14,20,22-pentazatetracyclo[12.5.2.1^{5,8}.0^{17,21}] docosa-1(20),5(22),6,15,17(21),18-hexaen-4-one]	248
COc1cc(C(=O)N2[C@H]3CC[C@@H]2[C@H](N)C3)cc2nc(-c3cc4ccc5nc4n3CCCCCCCC(=O)Nc3ccccc3-5)n(C)c12 [Example 93, 18-[5-[(1~{R},2~{R},4~{S})-2-amino-7-azabicyclo[2.2.1]heptane-7-carbonyl]-7-methoxy-1-methyl-benzimidazol-2-yl]-8,17,23-triazatetracyclo[15.5.2.0^{2,7).0^{20,24}] tetracosa-1(23),2,4,6,18,20(24),21-heptaen-9-one]	161
COc1cc(C(=O)N2[C@H]3CC[C@@H]2[C@H](N)C3)cc2nc(-c3cc4ccc5nc4n3CCCCCCCC(=O)N(C)[C@@H]5C)c(C)n12 [Example 319, (11~{R})-17-[7-[(1~{R},2~{R},4~{S})-2-amino-7-azabicyclo[2.2.1]heptane-7-carbonyl]-5-methoxy-3-methyl-imidazo[1,2-a]pyridin-2-yl]-10,11-dimethyl-1,10,19-triazatricyclo[10.5.2.0^{15,18}]nonadeca-12(19),13,15(18),16-tetraen-9-one]	266
COc1cc(C(=O)N2C[C@H](N)[C@@H]3CC[C@H]2C3)cc2nc(-c3cc4cc(F)c5cc4n3CC(F)(F)CCC[C@@H]3C[C@H]3C(=O)N[C@@H]5C)n(C)c12 [Example 463, (2~{R},5~{R},7~{R})-14-[5-[(1~{S},4~{R},5~{R})-4-amino-2-azabicyclo[3.2.1]octane-2-carbonyl]-7-methoxy-1-methyl-benzimidazol-2-yl]-11,11,18-trifluoro-2-methyl-3,13-diazatetracyclo[11.5.2.0^{5,7}.0^{16,20}] icosa-1(19),14,16(20),17-tetraen-4-one]	29
COc1cc(C(=O)N2[C@H]3CC[C@@H]2[C@H](N)C3)cc2nc(-c3cc4ccc5nc4n3CCCCCCCCC(=O)N[C@@H]5C)n(C)c12 [Example 286, (12~{R})-18-[5-[(1~{R},2~{R},4~{S})-2-amino-7-azabicyclo[2.2.1]heptane-7-carbonyl]-7-methoxy-1-methyl-benzimidazol-2-yl]-12-methyl-1,11,20-triazatricyclo[11.5.2.0^{16,19}]icosa-13(20),14,16(19),17-tetraen-10-one]	9
COc1cc(C(=O)N2CC[C@@H](OC(F)F)[C@@H](N)C2)cc2nc(-c3cc4ccc5cc4n3CCCCCc3nccnc3C(=O)N[C@@H]5C)n(C)c12 [Example 577, (2~{R})-17-[5-[(3~{S),4~{R})-3-amino-4-(difluoromethoxy)piperidine-1-carbonyl]-7-methoxy-1-methyl-benzimidazol-2-yl]-2-methyl-3,6,9,16-tetrazatetracyclo [14.5.2.0^{5,10}.0^{19, 23}]tricosa-1(22),5(10), 6,8,17,19(23),20-heptaen-4-one]	84
COc1cc(C(=O)N2[C@H]3CC[C@@H]2[C@H](N)C3)cc2nc(-c3cc4ccc5cc4n3CCCCCCC3(CC3)C(=O)N[C@@H]5C)n(C)c12 [Example 221, (11~{R})-17-[5-[(1~{R},2~{R},4~{S})-2-amino-7-azabicyclo[2.2.1]heptane-7-carbonyl]-7-methoxy-1-methyl-benzimidazol-2-yl]-11-methyl-spiro[1,10-diazatricyclo[10.5.2.0^{15,18}]nonadeca-12(19),13,15(18),16-tetraene-8,1′-cyclopropane]-9-one]	32
C[C@H]1NC(=O)[C@@H]2C[C@H]2CCCC(F)(F)Cn2c(-c3nc4cc(C(=O)N5C[C@H](N)C[C@@H](F)C5)cc(F)c4n3C3CC3)cc3ccc1nc32 [Example 640, (2~{R},5~{R},7~{R})-14-[5-[(3~{R},5~{R})-3-amino-5-fluoro-piperidine-1-carbonyl]-1-cyclopropyl-7-fluoro-benzimidazol-2-yl]-11,11-difluoro-2-methyl-3,13,19-triazatetracyclo[11.5.2.0^ {5,7}.0^{16,20}]icosa-1(19),14,16(20),17-tetraen-4-one]	24
COc1cc(C(=O)N2CC[C@@H](OC)[C@@H](N)C2)cc2nc(-c3cc4ccc5nc4n3CCCCC[C@]3(F)C[C@H]3C(=O)N[C@@H]5C)n(C)c12 [Example 689, (2~{R},5~{S},7~{S})-14-[5-[(3~{S},4~{R})-3-amino-4-methoxy-piperidine-1-carbonyl]-7-methoxy-1-methyl-benzimidazol-2-yl]-7-fluoro-2-methyl-3,13,19-triazatetracyclo[11.5.2.0^ {5,7}.0^{16,20}]icosa-1(19),14,16(20),17-tetraen-4-one]	39

Other lines, results leading:

IC50 [nM]	Compound
35	C[C@H]1NC(=O)[C@@H]2C[C@@H]2CCCCCn2c(-c3nc4cc(C(=O)N[C@H]5CNCC[C@@H]5F)c(F)cc4n3C3CC3)cc3ccc1nc32 [Example 520, 1-cyclopropyl-6-fluoro-~ {N}-[(3~{S},4~{S})-4-fluoro-3-piperidyl]-2-[(2~{R},5~{R},7~{S})-2-methyl-4-oxo-3,13,19-triazatetracyclo[11.5.2.0^ {5,7}.0^{16,20}]icosa-1(19),14,16(20),17-tetraen-14-yl]benzimidazole-5-carboxamide]
62	COc1cc(C(=O)N2[C@H]3CC[C@@H]2[C@H](N)C3)cc2nc(-c3cc4ccc5nc4n3CCCCCCC(C)(C)C(=O)N[C@@H]5C)n(C)c12 [Example 20, (11~{R})-17-[5-[(1~{R},2~{R},4~{S})-2-amino-7-azabicyclo[2.2.1]heptane-7-carbonyl]-7-methoxy-1-methyl-benzimidazol-2-yl]-8,8,11-trimethyl-1,10,19-triazatricyclo[10.5.2.0^{15,18}]nonadeca-12(19),13,15(18),16-tetraen-9-one]
109	COc1cc(C(=O)N[C@H]2CNCC[C@@H]2F)cc2nc(-c3cc4ccc5nc4n3CCCCCCC(F)(F)C(=O)N[C@@H]5C)n(C)c12 [Example 375, 2-[(11~{R})-8,8-difluoro-11-methyl-9-oxo-1,10,19-triazatricyclo[10.5.2.0^{15,18}]nonadeca-12(19),13,15(18),16-tetraen-17-yl]-~ {N}-[(3~{S},4~{S})-4-fluoro-3-piperidyl]-7-methoxy-1-methyl-benzimidazole-5-carboxamide]
34	C[C@@H]1C[C@H]1n1c(-c2cc3ccc4nc3n2CCCCC[C@@H]2C[C@H]2C(=O)N[C@@H]4C)nc2cc(C(=O)N[C@H]3CNCC[C@@H]3F)c(F)cc21 [Example 416, 6-fluoro-~{N}-[(3~{S},4~{S})-4-fluoro-3-piperidyl]-1-[(1~{R},2~{R})-2-methylcyclopropyl]-2-[(2~{R},5~{R},7~{R})-2-methyl-4-oxo-3,13,19-triazatetracyclo[11.5.2.0^{5,7}.0^{16,20}]icosa-1(19),14,16(20),17-tetraen-14-yl]benzimidazole-5-carboxamide]
74	C[C@H]1NC(=O)C(C)(C)CCCCCn2c(-c3nc4cc(C(=O)N[C@H]5CNCC[C@@H]5F)c(F)cc4n3C3CC3)cc3ccc1nc32 [Example 515, 1-cyclopropyl-6-fluoro- ~{N}-[(3~{S},4~{S})-4-fluoro-3-piperidyl]-2-[(10~{R})-7,7,10-trimethyl-8-oxo-1,9,18-triazatricyclo [9.5.2.0^{14,17}]octadeca-11(18),12,14(17),15-tetraen-16-yl]benzimidazole-5-carboxamide]
6690	COc1cc(C(=O)N2CC[C@@H](C(F)(F)F)[C@@H](N)C2)cc2nc(-c3cc4ccc5nc4n3CCCCCCC(C)(C)C(=O)N[C@@H]5C)n(C)c12 [Example 192, (11~{R})-17-[5-[(3~{R},4~{R})-3-amino-4-(trifluoromethyl)piperidine-1-carbonyl]-7-methoxy-1-methyl-benzimidazol-2-yl]-8,8,11-trimethyl-1,10,19-triazatricyclo[10.5.2.0^{15,18}]nonadeca-12(19),13,15(18),16-tetraen-9-one]
